Drawing on ChEMBL document CHEMBL4184312, “Discovery of novel CDK inhibitors via scaffold hopping from CAN508” (Bioorg Med Chem Lett, 2018), this text covers inhibition, IC50 and Ratio IC50 for 29 molecules.

The term inhibition denotes the change of the read-out against control, counted positive when it falls. In general, IC50 refers to the concentration needed to halve the response being measured.

For one test, the target named is CDK2/Cyclin A2 (Homo sapiens) (UniProt P24941+P20248). As to the kind of experiment: Inhibition of recombinant human CDK2/cyclin A at 10 uM using Ulight-CFFKNIVTPRTPPPSQGK-amide as substrate after 15 mins by fluorescence assay relative to control. It is filed as protein-complex assay.
`N#Cc1ccc(-c2cnc3[nH]nc(NC(=O)C4CCCCC4)c3c2)cc1`: the inhibition was below 10%.
The same measure, in the same setting: to `Nc1n[nH]c2ncc(-c3ccc(O)cc3)cc12` belongs 58%.
The same measure, in the same setting: to `O=C(Nc1n[nH]c2ncc(-c3cccc(O)c3)cc12)C1CCCCC1` belongs 63%.
Same read-out and setting: with `Nc1n[nH]c2ncc(-c3cncnc3)cc12` the figure was 33%.
As to `O=C(CCCl)Nc1n[nH]c2ncc(-c3ccc(O)cc3)cc12`, the inhibition is 98%.
On the same count and under the same terms, to `CC(C)CC(=O)Nc1n[nH]c2ncc(-c3ccc(O)cc3)cc12` belongs 54%; to `O=C(Nc1n[nH]c2ncc(-c3ccc([N+](=O)[O-])cc3)cc12)C1CCCCC1`, below 10%; to `CN(C)CC(=O)Nc1n[nH]c2ncc(-c3ccc(O)cc3)cc12`, 52%.
Same read-out and setting: with `O=C(O)c1ccc(-c2cnc3[nH]nc(NC(=O)C4CCCCC4)c3c2)cc1` the figure was below 10%; with `CN1CCN(CCC(=O)Nc2n[nH]c3ncc(-c4ccc(O)cc4)cc23)CC1`, 51%; with `O=C(Cc1ccccc1)Nc1n[nH]c2ncc(-c3ccc(O)cc3)cc12`, 70%.
As for `O=C(Nc1n[nH]c2ncc(-c3ccc(O)cc3)cc12)C1CCCCC1`, the inhibition came out at 86%.
Still for that read-out and setting: to `CCCCC(=O)Nc1n[nH]c2ncc(-c3ccc(O)cc3)cc12` belongs 87%; to `CN(C)CCC(=O)Nc1n[nH]c2ncc(-c3ccc(O)cc3)cc12`, 59%.
Same read-out and setting: with `O=C(Nc1n[nH]c2ncc(-c3cncnc3)cc12)C1CCCCC1` the figure was 96%.
In the case of `CCC(=O)Nc1n[nH]c2ncc(-c3ccc(O)cc3)cc12`, the inhibition stood at 90%.
With `CC(C)c1ccc(-c2cnc3[nH]nc(N)c3c2)cc1`, the inhibition is below 10%.
With `O=C(Nc1n[nH]c2ncc(-c3ccncc3)cc12)C1CCCCC1`, the inhibition is 59%.
On the same count and under the same terms, to `Nc1n[nH]c2ncc(-c3ccc(F)cc3)cc12` belongs 51%; to `CCC(CC)C(=O)Nc1n[nH]c2ncc(-c3ccc(O)cc3)cc12`, 63%; to `O=C(Nc1n[nH]c2ncc(-c3ccc(CO)cc3)cc12)C1CCCCC1`, 34%.
Turning to `CC(C)(C)CC(=O)Nc1n[nH]c2ncc(-c3ccc(O)cc3)cc12`, the inhibition came out at 77%.
The same measure, in the same setting: with `O=C(Nc1n[nH]c2ncc(-c3ccc(F)cc3)cc12)C1CCCCC1` the figure was below 10%; with `O=C(CCN1CCOCC1)Nc1n[nH]c2ncc(-c3ccc(O)cc3)cc12`, 44%.
On the same count and under the same terms, to `CNCC(=O)Nc1n[nH]c2ncc(-c3ccc(O)cc3)cc12` belongs 68%; to `CNCCC(=O)Nc1n[nH]c2ncc(-c3ccc(O)cc3)cc12`, 39%.
Same read-out and setting: to `O=C(Nc1n[nH]c2ncc(-c3ccccc3O)cc12)C1CCCCC1` belongs 80%; to `COc1ccc(-c2cnc3[nH]nc(N)c3c2)cc1`, below 10%.

Another test deals with CDK9/cyclin T1 (Homo sapiens) (UniProt O60563+P50750). As to the kind of experiment: Inhibition of recombinant human CDK9/cyclin T1 at 10 uM using Ulight-CFFKNIVTPRTPPPSQGK-amide as substrate after 90 mins by fluorescence assay relative to control. The class given is protein-complex assay.
In the case of `N#Cc1ccc(-c2cnc3[nH]nc(NC(=O)C4CCCCC4)c3c2)cc1`, the inhibition is below 10%.
The same measure, in the same setting: to `Nc1n[nH]c2ncc(-c3ccc(O)cc3)cc12` belongs 48%; to `O=C(Nc1n[nH]c2ncc(-c3cccc(O)c3)cc12)C1CCCCC1`, 62%; to `Nc1n[nH]c2ncc(-c3cncnc3)cc12`, 50%.
Still for that read-out and setting: with `O=C(CCCl)Nc1n[nH]c2ncc(-c3ccc(O)cc3)cc12` the figure was 73%; with `CC(C)CC(=O)Nc1n[nH]c2ncc(-c3ccc(O)cc3)cc12`, 19%; with `O=C(Nc1n[nH]c2ncc(-c3ccc([N+](=O)[O-])cc3)cc12)C1CCCCC1`, below 10%.
Still for that read-out and setting: to `CN(C)CC(=O)Nc1n[nH]c2ncc(-c3ccc(O)cc3)cc12` belongs 56%; to `O=C(O)c1ccc(-c2cnc3[nH]nc(NC(=O)C4CCCCC4)c3c2)cc1`, below 10%.
Take `CN1CCN(CCC(=O)Nc2n[nH]c3ncc(-c4ccc(O)cc4)cc23)CC1`: the inhibition is 49%.
On the same count and under the same terms, with `O=C(Cc1ccccc1)Nc1n[nH]c2ncc(-c3ccc(O)cc3)cc12` the figure was 25%.
Same read-out and setting: to `O=C(Nc1n[nH]c2ncc(-c3ccc(O)cc3)cc12)C1CCCCC1` belongs 70%.
Take `CCCCC(=O)Nc1n[nH]c2ncc(-c3ccc(O)cc3)cc12`: the inhibition came to 73%.
Turning to `CN(C)CCC(=O)Nc1n[nH]c2ncc(-c3ccc(O)cc3)cc12`, the inhibition was found to be 48%.
As to `O=C(Nc1n[nH]c2ncc(-c3cncnc3)cc12)C1CCCCC1`, the inhibition came out at 83%.
For the molecule `CCC(=O)Nc1n[nH]c2ncc(-c3ccc(O)cc3)cc12`, the inhibition was determined as 70%.
The same measure, in the same setting: with `CC(C)c1ccc(-c2cnc3[nH]nc(N)c3c2)cc1` the figure was below 10%; with `O=C(Nc1n[nH]c2ncc(-c3ccncc3)cc12)C1CCCCC1`, 59%.
Consider `Nc1n[nH]c2ncc(-c3ccc(F)cc3)cc12`, for which the inhibition came out at 38%.
On the same count and under the same terms, with `CCC(CC)C(=O)Nc1n[nH]c2ncc(-c3ccc(O)cc3)cc12` the figure was 12%.
The same measure, in the same setting: with `O=C(Nc1n[nH]c2ncc(-c3ccc(CO)cc3)cc12)C1CCCCC1` the figure was 31%; with `CC(C)(C)CC(=O)Nc1n[nH]c2ncc(-c3ccc(O)cc3)cc12`, 59%; with `O=C(Nc1n[nH]c2ncc(-c3ccc(F)cc3)cc12)C1CCCCC1`, 32%.
As for `O=C(CCN1CCOCC1)Nc1n[nH]c2ncc(-c3ccc(O)cc3)cc12`, the inhibition came to 21%.
Consider `CNCC(=O)Nc1n[nH]c2ncc(-c3ccc(O)cc3)cc12`, for which the inhibition amounted to 64%.
The same measure, in the same setting: to `CNCCC(=O)Nc1n[nH]c2ncc(-c3ccc(O)cc3)cc12` belongs 64%; to `O=C(Nc1n[nH]c2ncc(-c3ccccc3O)cc12)C1CCCCC1`, 78%; to `COc1ccc(-c2cnc3[nH]nc(N)c3c2)cc1`, below 10%.

A further test has as its target CDK2/Cyclin A2 (Homo sapiens, UniProt P24941). As to the kind of experiment: Inhibition of recombinant human CDK2/cyclin A using Ulight-CFFKNIVTPRTPPPSQGK-amide as substrate after 15 mins by fluorescence assay relative to control. The class given is protein-complex assay.
On to `O=C(CCCl)Nc1n[nH]c2ncc(-c3ccc(O)cc3)cc12`, for which the IC50 turned out to be 660 nM.
As for `Nc1n[nH]c(N)c1/N=N/c1ccc(O)cc1`, the half-inhibitory concentration (IC50) turned out to be 13100 nM.
On the same count and under the same terms, with `O=C(Nc1n[nH]c2ncc(-c3cncnc3)cc12)C1CCCCC1` the figure was 360 nM; with `CCC(=O)Nc1n[nH]c2ncc(-c3ccc(O)cc3)cc12`, 820 nM.
With `CCC(CC)C(=O)Nc1n[nH]c2ncc(-c3ccc(O)cc3)cc12`, the IC50 turned out to be 2000 nM.

In the next test the target is CDK9/cyclin T1 (Homo sapiens, UniProt P50750). As to the kind of experiment: Inhibition of recombinant human CDK9/cyclin T1 using Ulight-CFFKNIVTPRTPPPSQGK-amide as substrate after 90 mins by fluorescence assay relative to control. The class given is protein-complex assay.
CDK9/cyclin T1, sequence (O60563 whole entry): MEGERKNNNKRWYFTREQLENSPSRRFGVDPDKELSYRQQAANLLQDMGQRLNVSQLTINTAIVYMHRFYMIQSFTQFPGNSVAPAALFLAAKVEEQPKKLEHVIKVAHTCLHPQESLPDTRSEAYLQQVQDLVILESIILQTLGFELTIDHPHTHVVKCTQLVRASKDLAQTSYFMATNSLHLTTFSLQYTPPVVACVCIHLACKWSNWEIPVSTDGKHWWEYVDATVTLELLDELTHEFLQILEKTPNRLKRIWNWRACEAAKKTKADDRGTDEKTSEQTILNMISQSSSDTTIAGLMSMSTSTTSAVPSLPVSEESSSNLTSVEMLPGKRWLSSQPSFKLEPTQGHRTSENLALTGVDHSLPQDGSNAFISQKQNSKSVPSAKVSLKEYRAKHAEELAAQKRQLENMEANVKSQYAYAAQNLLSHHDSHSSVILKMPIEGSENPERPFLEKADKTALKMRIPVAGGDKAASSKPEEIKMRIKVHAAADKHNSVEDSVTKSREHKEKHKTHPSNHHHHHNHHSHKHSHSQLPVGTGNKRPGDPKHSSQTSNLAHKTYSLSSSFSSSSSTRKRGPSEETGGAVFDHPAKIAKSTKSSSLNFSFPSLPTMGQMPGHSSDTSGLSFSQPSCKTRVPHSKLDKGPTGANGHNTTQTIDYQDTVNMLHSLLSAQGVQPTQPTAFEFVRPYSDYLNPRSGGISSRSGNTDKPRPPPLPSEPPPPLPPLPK
CDK9/cyclin T1, sequence (P50750 whole entry): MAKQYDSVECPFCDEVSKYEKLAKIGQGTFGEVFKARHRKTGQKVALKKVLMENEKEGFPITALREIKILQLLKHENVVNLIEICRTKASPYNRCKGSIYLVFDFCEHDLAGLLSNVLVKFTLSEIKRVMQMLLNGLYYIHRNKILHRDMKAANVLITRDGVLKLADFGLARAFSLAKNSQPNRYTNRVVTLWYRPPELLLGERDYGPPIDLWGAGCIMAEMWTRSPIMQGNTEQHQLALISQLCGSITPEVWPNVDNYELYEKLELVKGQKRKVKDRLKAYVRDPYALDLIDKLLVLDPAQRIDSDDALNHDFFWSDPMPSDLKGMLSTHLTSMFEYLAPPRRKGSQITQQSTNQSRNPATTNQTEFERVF
On to `O=C(CCCl)Nc1n[nH]c2ncc(-c3ccc(O)cc3)cc12`, for which the IC50 was found to be 2400 nM.
For `O=C(Nc1n[nH]c2ncc(-c3ccc(O)cc3)cc12)C1CCCCC1`, the IC50 was 10400 nM.
The same measure, in the same setting: with `CCCCC(=O)Nc1n[nH]c2ncc(-c3ccc(O)cc3)cc12` the figure was 3500 nM; with `O=C(Nc1n[nH]c2ncc(-c3cncnc3)cc12)C1CCCCC1`, 1800 nM; with `CCC(=O)Nc1n[nH]c2ncc(-c3ccc(O)cc3)cc12`, 2400 nM.
Same read-out and setting: to `CCC(CC)C(=O)Nc1n[nH]c2ncc(-c3ccc(O)cc3)cc12` belongs 529000 nM; to `O=C(Nc1n[nH]c2ncc(-c3ccccc3O)cc12)C1CCCCC1`, 3600 nM.

Another test is filed under the species Homo sapiens. As to the kind of experiment: Selectivity ratio of IC50 for recombinant human CDK9/cyclin T1 to IC50 for recombinant human CDK2/cyclin A.
As to `CCC(CC)C(=O)Nc1n[nH]c2ncc(-c3ccc(O)cc3)cc12`, the Ratio IC50 was found to be 265.
